By IC50 is commonly meant the concentration that inhibits the measured activity by half.

Series [1] has as its system A2780 ovarian cancer cell line (cisplatin sensitive). The experiment in a line: In vitro cytotoxicity assay (MTS), A2780. It counts as cell-based, human. Conditions: MTS after 72 hours, ±SD. As to the method: (§1) The MDA-MB-231-mCherry breast cancer cells were cultured in Dulbecco's modified Eagle's medium (DMEM) and supplemented with 5% heat-inactivated fetal bovine serum (FBS), 50 units/ml penicillin, 50 μg/ml streptomycin, 2 mM L-glutamine, and 1 μg/ml blasticidin S (Sigma). The A2780 and A2780^CP ovarian cancer cell lines and the multiple myeloma RPMI 8226 cell line were cultured in RPMI 1640 medium supplemented with 10% FBS, 50 units/ml penicillin, 50 μg/ml streptomycin, 2 mM L-glutamine. The U-87 and HTC-116 cancer cell lines were cultured without antibiotics. Cells were grown at 37° C. in a humidified atmosphere of 5% of CO2.
(§2) B. In Vitro Cytotoxicity Assay for MDA-MB-231mCherry, A270 and A2780CP Cancer Cell Lines.
The cytotoxicities of compound (1), cisplatin, and As2O3 were assessed by MTS assay using the CellTiter 96 Aqueous MTS (Promega). The 100 μL aliquots of cell suspension (1.0×10^5 cells/ml) were plated in 96-well tissue culture plates in the incubator overnight at 37° C. in a humidified atmosphere of 5% of CO2. The serial dilutions of compound (1), cisplatin, and As2O3 in appropriate media were transferred to the cells. The MTS solution (20 μL) was added after 72 hours and the absorbance was measured at 495 nm 4 hours later. Sigmoidal dose response curves were plotted using the GraphPad Prism software. The IC50 values were obtained on at least three independent experiments. In vitro cytotoxicity assay for U-87 and HTC-116 cancer cell line. For the experiment, cells were cultured in RPMI 1640 medium with 5% FBS and 2 mM L-glutamine. […] HCT-116 and U-87 cancer cell were plated in 96 well plates. The cells were plated in four replicates. The densities of the cells were 5000 and 10000 per well in 90 μL for HTC-116 and U-87, respectively. […] The cells were treated with 100, 10, 1, 0.1 0.01, 0.001, 0.0001, 0.00001 and 0.000001 μM of compound (1), cisplatin, and As2O3. […] The plates were shaken for 2 minutes and allowed to sit for activation prior to reading for 10 minutes. Plates were read on Biotek Synergy H1 (Biotek, Wenooski, Vt.) reader capable of luminescence detection.

A further series relates to colon HCT-116 cells. In kind it is cell-based, human. The settings on record: Cell Titer Glow, 48 hours post drug treatment, ±SD, read-out: IC50 values in μM (±SD), HTC−116. As to the method: as §1
(§3) The cytotoxicities of compound (1), cisplatin, and As2O3 were assessed by MTS assay using the CellTiter 96 Aqueous MTS (Promega). The 100 μL aliquots of cell suspension (1.0×10^5 cells/ml) were plated in 96-well tissue culture plates in the incubator overnight at 37° C. in a humidified atmosphere of 5% of CO2. The serial dilutions of compound (1), cisplatin, and As2O3 in appropriate media were transferred to the cells. The MTS solution (20 μL) was added after 72 hours and the absorbance was measured at 495 nm 4 hours later. Sigmoidal dose response curves were plotted using the GraphPad Prism software. The IC50 values were obtained on at least three independent experiments. In vitro cytotoxicity assay for U-87 and HTC-116 cancer cell line. For the experiment, cells were cultured in RPMI 1640 medium with 5% FBS and 2 mM L-glutamine. […] HCT-116 and U-87 cancer cell were plated in 96 well plates. The cells were plated in four replicates. The densities of the cells were 5000 and 10000 per well in 90 μL for HTC-116 and U-87, respectively. […] The cells were treated with 100, 10, 1, 0.1 0.01, 0.001, 0.0001, 0.00001 and 0.000001 μM of compound (1), cisplatin, and As2O3. After 48 hours post drug treatment all plates were allowed to equilibrate for 30 minutes at room temperature from incubator. Addition of 100 μL of Cell Titer Glow (Promega, Fitchburg, Wis.) reagent was added to the wells. The plates were shaken for 2 minutes and allowed to sit for activation prior to reading for 10 minutes. Plates were read on Biotek Synergy H1 (Biotek, Wenooski, Vt.) reader capable of luminescence detection.
Background: In ATP-based viability assays light output follows the ATP content of the culture.

A further series relates to glioblastoma U-87 cells. It counts as cell-based, human. The settings on record: Cell Titer Glow, 48 hours post drug treatment, ±SD. The method, then:
as §1, §3

In series [2] the test system is multiple myeloma RPMI 8226 cell line. In kind it is cell-based, human. Conditions: ±SD. As to the method:
as §1, §3

The test system of series [3] is MDA-MB-231-mCherry breast cancer cells. In kind it is cell-based, human. The settings on record: triple negative breast cancer; MTS after 72 hours; ±SD. The method, then: as §1, §2, §3
Series [4] has as its system A2780^CP ovarian cancer cell line (cisplatin resistant). In kind it is cell-based, human. The settings on record: for IC50: ovarian cisplatin resistant, MTS after 72 hours, ±SD. The method, then:
as §1, §2, §3

Series [5] can be described thus: Linkage isomerization in [D6]DMSO solution by NMR. It counts as physicochemical. Conditions: compound (5) dissolved in [D6]DMSO, room temperature; S-isomer = compound (5), N-isomer = compound (6). From the text: Solution NMR and X-ray crystallography confirm that the Pt—As bond remained intact. Crystals suitable for a single crystal X-ray analysis were obtained when compound (5) was synthesized in a 1:1 water/methanol mixture, where the SCN^− ion is bound to Pt(II) through the sulfur atom (FIG. 1D). […] Assignments of chemical shifts for the S- and N-bound isomers signals are based on multidimensional ^195Pt and ^15N NMR spectroscopy on sample of compound (5) which is synthesized using thiocyanate enriched in ^13C and ^15N at 99% (FIG. 2).
Cisplatin, K2[PtCl4], DMSO, methanol, acetonitrile, propionitrile and As2O3 were purchased from Sigma-Aldrich and used without further purification. Media for the cell cultures and all other cell supplements were purchased from Invitrogen. The following spectrometers were used: NMR: Bruker Avance-III 600 and 500 MHz; chemical shifts (^1H, ^13C) were referenced to tetramethylsilane at 0.000 ppm ^1H and ^13C if it was present, and to residual solvent signal for samples in which TMS was absent (for [D6]DMSO, δH=2.50 ppm and δC=39.5 ppm). […] UV/Vis electron absorbance measurements were performed on a Perkin Elmer Lambda 650 spectrophotometer. […]

Series [6] concerns panel of human cancer cell lines. The experiment in a line: Anticancer activity in a panel of human cancer cell lines. In kind it is cell-based. As to the method: as §1
The cytotoxicities of compound (1), cisplatin, and As2O3 were assessed by MTS assay using the CellTiter 96 Aqueous MTS (Promega). The 100 μL aliquots of cell suspension (1.0×10^5 cells/ml) were plated in 96-well tissue culture plates in the incubator overnight at 37° C. in a humidified atmosphere of 5% of CO2. The serial dilutions of compound (1), cisplatin, and As2O3 in appropriate media were transferred to the cells. The MTS solution (20 μL) was added after 72 hours and the absorbance was measured at 495 nm 4 hours later. […] The plates were shaken for 2 minutes and allowed to sit for activation prior to reading for 10 minutes. Plates were read on Biotek Synergy H1 (Biotek, Wenooski, Vt.) reader capable of luminescence detection.

Series [7] can be described thus: Solubility of the isolated complex. It counts as physicochemical. The method, then: Cisplatin (300 mg, 1.00 mmol) or K2[PtCl4] (415 mg, 1.00 mmol) was added to 125 cm^3 of 9:1 CH3CN/H2O (v/v). The mixture was stirred at 90° C. Once the platinum compound was dissolved, 396 mg As2O3(2.00 mmol) was added to the solution, and the reaction mixture was stirred at 90° C. for 72 hours. The resulting mixture was filtered, and the filtrate was left at room temperature in a glass beaker for approximately 4 weeks until crystals formed. Crystals suitable for a single crystal X-ray analysis were retrieved from solution. The solution was filtered, washed with CH3CN:H2O (9:1 mixture), and the obtained crystals were dried in a dessicator. Yield 350 mg product (75%; 23% when cisplatin is used). […] Elemental analysis (% calcd., found for C7H18.5AsClN3.5O6Pt): C (15.20, 15.24), H (3.37, 3.36), N (8.86, 8.69). NMR: ^1H NMR (600 MHz, [D6]DMSO, 25° C.) δ: 8.91 (s, 2H—OH), 8.15 (s, 2H—NH), 2.13 (s, 6H—CH3). ^13C NMR (150 MHz, [D6]DMSO, 25° C.): δ 172.1 (C-1, C-3), 171.4 (C-5, C-7), 22.5 (C-6, C-8), 16.6 (C-2, C-4). ^15N NMR (60 MHz, from the ^1H-^15N HSQC, [D6]DMSO, referenced to ^15NH4Cl, 25° C.): δ 106.4 (N-1, N-2), ^195Pt NMR (129 MHz, [D6]DMSO, 25° C.), δ: −3589 (s, 1Pt) ppm. UV/Vis ((methanol-water=1:1): λ1=283 nm (ε=4062 dm^3 mol^−1 cm^−1), λ2=247 nm (ε=3621 dm^3 mol^−1 cm^−1), sh. 260 nm.
LC/ESI-MS data were recorded every 24 hours. The color gradually turned yellow and ultimately colorless over the 4 day period. The resulting mixture was filtered and left to sit (pH roughly 2) at 25° C., and, within a week, crystals suitable for single crystal X-ray analysis appeared. The solution was filtered again, washed with H2O, dried, and weighed (212 mg 44%).
Compound (1) obtained in Example 2 (100 mg 0.18 mmol) was dissolved in 4 cm^3 of methanol and added to an equal-molar solution of KSCN (17.6 mg 0.180 mmol) in 4 cm^3 of water. The reaction mixture was allowed to stir at 50° C. for 5 hours. The mixture was filtered and the solution was left standing at room temperature until crystals appeared. The obtained crystals were removed by filtration. Yield: 60.00 mg (52%). Elemental analysis (% calcd., found for PtC5H10N3O4SAs): C (12.56, 12.37), H (2.11, 1.97), N (8.78, 8.56). NMR data: ^1H NMR (600 MHz, [D6]DMSO): δ 2.21 (s, 6H, CH3), 7.70 (s, 2H, NH), 9.20 (s, 2H, OH). ^13C NMR (150 MHz, [D6]DMSO) δ 17.5 (CH3), 117.7 (SCN), 172.6 (CO); ^195Pt NMR (129 MHz, [D6]DMSO) δ −3861 ppm (s, 1Pt); UV/Vis (methanol-water=1:1): λ1=285 nm (ε=4217 dm^3 mol^−1 cm^−1); λ2=225 nm (ε=15919 dm^3 mol^−1 cm^−1), shoulder at 265 nm.

arsenic trioxide [As2O3]: the IC50 in [1] was found to be 17.1 ± 1.5 µM; in the series on colon HCT-116 cells, 9.4 ± 0.9 µM; in the series with glioblastoma U-87 cells, 1.6 ± 2.9 µM; in series [2] it was 7.1 ± 0.2 µM; in series [3] it was 11.9 ± 2.3 µM; in series [4], 21.6 ± 1.4 µM.

Regarding “[Pt(μ-NHC(CH3)O)2(NCS)As(OH)2] [Compound (6)]”, in series [5], the “share of isomer in equilibrium mixture” value is recorded as 36%.

Take `N.N.[Cl][Pt][Cl]` [Cisplatin, Cis-diamminedichloroplatinum(II)]: the IC50 in series [1] was determined as 3.1 ± 1.1 µM; in the series on colon HCT-116 cells it was 5.5 ± 1.3 µM; with glioblastoma U-87 cells, 9.6 ± 0.8 µM; in [2], 1.9 ± 0.1 µM; in [3], 22.3 ± 2.8 µM; in series [4] it was 47.3 ± 2.1 µM.

Turning to “[Pt(μ-NHC(CH3)O)2ClAs(OH)2] [Compound (1)]”, the IC50 is 20.3 ± 4 µM in series [1]; 1.6 ± 0.4 µM in the series with colon HCT-116 cells; 0.37 ± 0.11 µM in the series on glioblastoma U-87 cells; 4.5 ± 1 µM in series [2]; 9.5 ± 0.1 µM in series [3]; 21.4 ± 1.8 µM in [4]. For the same molecule, the “anticancer activity in a panel of human cancer cell lines” value in series [6] is “significant anticancer activity”. For the same molecule, the “resistance factor (RF)” value in series [4] (ovarian A2780 and A2780^CP cell lines, RF value of <2 denotes no cross-resistance) is listed as 1.1. The “solubility in organic solvents” value in [7] is given as “soluble in DMSO, methanol, ethanol”. Besides, the solubility in water result in series [7] is reported as “partially in water”.

With “[Pt(μ-NHC(CH3)O)2(SCN)As(OH)2] [Compound (5)]”, in [5], the “share of isomer in equilibrium mixture” value was 64±1.2%. For the same molecule, in series [7], the “solubility in organic solvents” value was “DMSO and methanol”.

With “[Pt(μ-NHC(CH3CH2)O)2ClAs(OH)2] [Compound (2)]”, the “anticancer activity in a panel of human cancer cell lines” value in [6] was “significant anticancer activity”. Further, in series [7], the “solubility in organic solvents” value is “soluble in methanol, DMSO” and the solubility in water entry is reported as “partially soluble in H2O”.

(Values after patent US10118938B2, “Arsenoplatin anti-cancer agents” (priority 2012, dated 2018).)
